Assay results reported in patent US11752155B2, “Treatment of autism spectrum disorders, obsessive-compulsive disorder and anxiety disorders” (Rugen Holdings (Cayman) Limited, priority 2016, dated 2023).
Where “and” joins values, the source holds several entries; their conditions need not be identical. Equal values may be shown once. Entries after “also recorded” stand apart in the source; their conditions may differ. Read-outs that look alike come from different tables or passages of the source.

What was measured:
[1] = tested on: wild type mice (male NMRI); test: Marble Burying Test in wild type mice; format: in vivo, mouse
How it was run: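 Male NMRI mice, 12 per group, received compound in 0.5% DMSO/4% HP-β-CD PO or IP 20 min before test. Marbles (25) buried two-thirds or more in sawdust were counted over a blind 30-min session. Groups were compared with vehicle by Kruskal-Wallis then Mann-Whitney U.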

Sapap3 knockout mice = test: Grooming Test in Sapap3 knockout mice; format: in vivo, mouse; conditions: for tachyphylaxis with repeated weekly dosing: dosed IP on Days 1, 15, 22, 29; for acute effect on excessive self-grooming: single IP dose, Day 1
Description: Animals. The breeding conditions and genotyping methods for Sapap3 and Shank3 complete knockout mice were the same as described in Welch et al. (Nature 2007, 448(7156):894-900) and in Wang et al. (Nat. Commun. 2016, 7:11459), respectively. Homozygous knockout mice and littermate wild type mice of both genders were used at 4 to 8 weeks of age.
Compound formulation. The test compounds were dissolved in a small volume of dimethyl sulfoxide (DMSO) and diluted in an aqueous solution of 2-hydroxypropyl-beta-cyclodextrin (HP-β-CD) and administered IP. Dosing volume was 10 mL/kg. At 20 minutes after dosing, the mice were subjected to the behavioral test as described below.
Testing room and apparatus. The test room was maintained under the same conditions as the colony rooms, except the mice were housed in conventional shoe-box cages with food, water, and nesting materials. Animals were housed in the test room 48-72 hours prior to testing, in order to permit the mice to fully acclimate to the test room and conventional housing cages before testing. Tests were conducted in white polyvinyl-fluoride hard-sided foam test arenas (20×20×12 cm). The arenas were indirectly illuminated by dimmable LED light bars placed level with the arena floor and 30 cm away from the external wall of the test arena. This permitted the internal area of the arena to be evenly illuminated at approximately 40 lux. The illumination levels where the mice were housed before testing were about 80-100 lux.
Testing procedure. Mice were carefully placed into the test arenas 20 minutes after compound administration. Animals were given free exploration of the arena for 10 minutes, after which they were gently sprayed with 4 quick pumps of a water mist (total water volume approximated 1.5-1.7 mL). Mice were then allowed an additional 10 minutes to self-groom and engage in other behaviors before being removed from the arena. All tests were videotaped using cameras mounted above the testing arena and were saved to digital media format using Noldus Media Player software (Noldus Information Technologies, Leesburg, Va.). The mice were only tested once in the acute studies and were repeatedly tested in the sustained effect studies.
Quantitation of grooming bouts. Analyses of the video recordings were conducted with TopScan behavioral recognition software (Cleversys Inc, Reston, Va.). Configurations were made which scored time spent in grooming. […] These settings permitted automated scoring of grooming by TopScan that corresponded well to manual-scoring of these behaviors by a trained blinded observer using Noldus Observer XT9 (Noldus Information Technologies), with an average corrected kappa of 0.925 (range 0.807-0.983).
Statistical analyses. Data are presented as means and standard error of the means (SEMs). Analyses were conducted using SPSS 23 (IBM SPSS Statistics, Chicago, Ill.). Time spent in grooming behavior (seconds) over the 10-minute pre- and post-spray time blocks were analyzed with repeated measures analyses of variance (RMANOVA). The pre- and post-spray times were used for the within subject effects and the genotype and compound treatment condition were used as the between subject effects. In sustained effect studies, days were also used for a within subject effect. Some analyses of total groom time were performed in Prism 7.01 (GraphPad Software, La Jolla, Calif.), with one-way ANOVAs to compare genotypes on Day 1 or with RMANOVAs to compare treatment groups within the same genotype across days. Treatments with compounds were compared independently with the vehicle. All post-hoc comparisons were performed with Bonferroni corrections for multiple comparisons to avoid a Type I error. In all cases, a p<0.05 was considered significant.
Next, the effect of two subunit-selective NR2B antagonists administered as a single IP dose and assessed 20 minutes postdose was studied in the Sapap3 knockout mice (n=6-10 mice per treatment group). […]

hERG channel = hERG channel (Homo sapiens (Human), UniProt Q12809); test: hERG channel inhibition, whole cell patch clamp in HEK293 cells; format: cell-based; conditions: for inhibition at 5 min, 10 µM: human, HEK293 cells stably expressing hERG channel, pH 7.35
Sequence of hERG channel (Q12809 whole entry): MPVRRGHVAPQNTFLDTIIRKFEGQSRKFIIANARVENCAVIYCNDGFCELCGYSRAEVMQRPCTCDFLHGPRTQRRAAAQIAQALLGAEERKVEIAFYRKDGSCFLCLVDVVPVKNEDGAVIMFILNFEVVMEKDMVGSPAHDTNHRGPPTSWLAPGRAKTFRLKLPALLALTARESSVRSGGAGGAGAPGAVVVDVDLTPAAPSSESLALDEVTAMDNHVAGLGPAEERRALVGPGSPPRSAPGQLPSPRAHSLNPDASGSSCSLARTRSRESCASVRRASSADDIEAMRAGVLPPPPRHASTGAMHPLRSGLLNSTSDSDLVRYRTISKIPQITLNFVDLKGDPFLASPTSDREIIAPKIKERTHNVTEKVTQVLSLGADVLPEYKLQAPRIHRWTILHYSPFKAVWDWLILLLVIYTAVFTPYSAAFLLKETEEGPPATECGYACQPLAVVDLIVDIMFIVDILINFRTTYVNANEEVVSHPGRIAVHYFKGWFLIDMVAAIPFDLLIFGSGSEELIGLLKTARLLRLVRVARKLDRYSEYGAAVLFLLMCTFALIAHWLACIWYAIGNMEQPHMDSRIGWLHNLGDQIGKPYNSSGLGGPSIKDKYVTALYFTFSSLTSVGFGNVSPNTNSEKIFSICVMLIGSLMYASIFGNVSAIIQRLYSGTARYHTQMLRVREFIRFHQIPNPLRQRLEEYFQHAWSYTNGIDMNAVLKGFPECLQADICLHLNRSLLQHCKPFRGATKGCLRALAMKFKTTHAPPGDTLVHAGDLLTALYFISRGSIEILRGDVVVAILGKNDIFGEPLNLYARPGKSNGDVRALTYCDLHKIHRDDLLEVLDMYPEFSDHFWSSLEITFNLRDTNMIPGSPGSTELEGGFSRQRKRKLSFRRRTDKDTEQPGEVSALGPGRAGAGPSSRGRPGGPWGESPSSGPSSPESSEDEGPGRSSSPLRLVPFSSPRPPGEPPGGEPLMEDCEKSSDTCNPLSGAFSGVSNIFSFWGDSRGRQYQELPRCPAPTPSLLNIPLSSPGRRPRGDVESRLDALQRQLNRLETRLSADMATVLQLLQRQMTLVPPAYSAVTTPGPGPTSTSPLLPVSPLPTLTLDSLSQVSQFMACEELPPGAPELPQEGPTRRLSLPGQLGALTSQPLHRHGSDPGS

CYP2D6 = CYP2D6 (Homo sapiens (Human), UniProt P10635); test: CYP P450 enzyme inhibition in pooled human liver microsomes (dextromethorphan probe); format: in vitro ADME; conditions: for inhibition at 10 min, 10 µM: human, pooled human liver microsomes, pH 7.4, probe dextromethorphan, 5 μM, read-out: CYP2D6 Inhibiton at 10 μM
Sequence of CYP2D6 (P10635 whole entry): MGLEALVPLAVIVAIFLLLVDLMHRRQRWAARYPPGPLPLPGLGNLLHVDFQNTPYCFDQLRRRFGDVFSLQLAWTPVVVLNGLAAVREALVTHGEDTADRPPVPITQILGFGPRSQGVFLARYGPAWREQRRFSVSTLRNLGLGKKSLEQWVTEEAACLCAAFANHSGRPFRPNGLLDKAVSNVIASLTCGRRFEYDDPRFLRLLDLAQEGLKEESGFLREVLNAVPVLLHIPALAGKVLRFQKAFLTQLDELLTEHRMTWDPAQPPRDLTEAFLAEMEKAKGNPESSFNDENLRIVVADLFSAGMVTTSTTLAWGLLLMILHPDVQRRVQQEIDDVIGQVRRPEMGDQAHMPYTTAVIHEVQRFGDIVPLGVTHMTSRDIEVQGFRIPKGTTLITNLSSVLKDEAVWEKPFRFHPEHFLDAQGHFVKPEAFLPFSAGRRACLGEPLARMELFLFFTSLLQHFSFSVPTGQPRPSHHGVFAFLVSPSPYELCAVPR
Description: Test compound concentration-dependent response studies were performed in triplicate.

[2] = Mus musculus, ip, read-out: Percent Change in marbles buried relative to vehicle
[3] = Mus musculus, po, read-out: Percent Change in marbles buried relative to vehicle
[4] = single dose 1 mg/kg IP on Day 1

inhibition at 10 min, 10 µM (CYP2D6)	SMILES	change in vivo at 0.316 mg/kg [1, 2]	change in vivo at 3 mg/kg [1, 2]	change in vivo at 10 mg/kg [1, 2]	change in vivo at 1 mg/kg [1, 3]	change in vivo at 3 mg/kg [1, 3]	change in vivo at 10 mg/kg [1, 3]	tachyphylaxis with repeated weekly dosing (Sapap3 knockout mice)	significantly reduced grooming through Day (Sapap3 knockout mice; first dose 3 mg/kg IP on Day 1)	acute effect on excessive self-grooming (Sapap3 knockout mice; 20 min postdose)	significantly reduced grooming through Day (Sapap3 knockout mice; [4])	IC50 (hERG channel; Table 1.3B)	inhibition at 5 min, 10 µM (hERG channel)	other results
	FC(F)c1ccc(C(F)(F)CN2CCC(Nc3ncnc4[nH]ccc34)CC2)cc1 [C-179^A′]	9%	-96%	-94%	-1.1%	-81%	-99%	no tachyphylaxis developed; also recorded: tachyphylaxis was not observed	8 days	significantly reduced grooming; also recorded: markedly reduced excessive self-grooming	5 days			change in vivo at 1.78 mg/kg ([1]; Mus musculus, po, 1.78 mg/kg, read-out: Percent Change in marbles buried relative to vehicle): -81%; magnitude of the reduction in self-grooming (Sapap3 knockout mice; 1 mg/kg IP, pre-spray): 43.6%; magnitude of the reduction in self-grooming (Sapap3 knockout mice; 3 mg/kg IP, pre-spray): 80.5%; magnitude of the reduction in self-grooming (Sapap3 knockout mice; 10 mg/kg IP, pre-spray): 91.7%; reductions in self-grooming (Sapap3 knockout mice; 1, 3 and 10 mg/kg IP, post-spray): 66.9% to 77.6%; significantly reduced grooming through Day (Sapap3 knockout mice; single dose 0.32 mg/kg IP on Day 1): 5 days; significantly reduced grooming through Day (Sapap3 knockout mice; single dose 0.56 mg/kg IP on Day 1): 5 days; sustained efficacy lasting for (Sapap3 knockout mice; single dose of 3 mg/kg IP): 1 week; IC50 (hERG channel; Table 1.3A): 1.4 µM
14%	Cc1ccc(COC(=O)N2CC[C@H](CNc3nccn4cnnc34)C(F)(F)C2)cc1 [E1-1.2^B′]									markedly reduced excessive self-grooming		40 µM	17%	magnitude of the reduction in self-grooming (Sapap3 knockout mice; 3 mg/kg IP, 20 min postdose, pre- and post-spray): 70%-80%; magnitude of the reduction in self-grooming (Sapap3 knockout mice; 10 mg/kg IP, 20 min postdose, pre- and post-spray): > 90%; magnitude of the reduction in self-grooming (Sapap3 knockout mice; 30 mg/kg IP, 20 min postdose, pre- and post-spray): > 90%
32%	Cc1ccc(COC(=O)N2CC[C@H](CNc3cnc(C)cn3)C(F)(F)C2)cc1 [E1-21.26^B′]	-14%	-97%	-96%	8%	-41%	-78%	without tachyphylaxis	5 days	significantly reduced grooming			39%	effects lasting through Day after the fourth and final dose on Day 29 (Sapap3 knockout mice; 3 mg/kg IP on Days 1, 15, 22, 29): 40 days; effects lasting through Day after the fourth and final dose on Day 29 (Sapap3 knockout mice; 10 mg/kg IP on Days 1, 15, 22, 29): 43 days; significant reduction in grooming wore off by Day (Sapap3 knockout mice; first dose of 3 mg/kg IP): 8 days
	Cc1ccc(COC(=O)N2CC[C@H](CNc3ncccn3)C(F)(F)C2)cc1 [E1-22.2^B′]	-68%	-93%	-97%		-88%	-99%		22 days	significantly reduced grooming	19 days	> 10 µM and 17 µM		change in vivo at 0.03 mg/kg ([1]; Mus musculus, ip, 0.03 mg/kg, read-out: Percent Change in marbles buried relative to vehicle): -9%; change in vivo at 0.1 mg/kg [1, 2]: -13%; change in vivo at 0.3 mg/kg [1, 2]: -92%; change in vivo at 0.1 mg/kg [1, 3]: 14%; change in vivo at 0.3 mg/kg [1, 3]: 16%; efficacy in the Marble Burying Test ([1]; lowest test concentration of 1 mg/kg, IP): fully efficacious; IC50 (CYP2D6; Table 1.4B): > 50 µM
